Source: US20260001914A1, “MACROCYCLIC PEPTIDES TARGETING KRAS” (Merck Sharp & Dohme LLC, priority 2022, published 2026)
*1 amine or outer side, *2 acyl side, *3 side chain or, on linkers, in order; H or OH if unused. Where a SMILES comes first, the peptide text is derived from it. Bridges are numbered along the chain shown (N, C = ends). [ ]: non-standard residue; d: D form. Phe(4-guanidino) = N=C(N)Nc1ccc(C[C@H](N)C(=O)O)cc1; N(3-imidazol-1-ylpropyl)Gly = O=C(O)CNCCCn1ccnc1; Phe(3,4-Cl2) = N[C@@H](Cc1ccc(Cl)c(Cl)c1)C(=O)O; Ala(pyrimidin-5-yl) = N[C@@H](Cc1cncnc1)C(=O)O; X3 = CN([C@@H](Cc1cncnc1)C(=O)[*:2])[*:1]; Phe(4-NH2) = Nc1ccc(C[C@H](N)C(=O)O)cc1; 1Nal = N[C@@H](Cc1cccc2ccccc12)C(=O)O; NHCH2CH2SCH2CO = O=C(CSCCN[*:1])[*:2]; X47 = O=C([C@H](Cc1ccoc1)N[*:1])[*:2]; Ala(cPent) = N[C@@H](CC1CCCC1)C(=O)O; Phe(2-F) = N[C@@H](Cc1ccccc1F)C(=O)O; NMe3Pal = CN[C@@H](Cc1cccnc1)C(=O)O; X1 = O=C(C12CC(CN[*:1])(C1)C2)[*:2]; NMeCha = CN[C@@H](CC1CCCCC1)C(=O)O; NMeF = CN[C@@H](Cc1ccccc1)C(=O)O; PhLac = O=C(O)[C@@H](O)Cc1ccccc1; 3Pal = N[C@@H](Cc1cccnc1)C(=O)O; d3Pal = N[C@H](Cc1cccnc1)C(=O)O; Ahp(2) = CCCCC[C@H](N)C(=O)O; Cba = N[C@@H](CC1CCC1)C(=O)O; hLeu = CC(C)CC[C@H](N)C(=O)O; αMeC = C[C@](N)(CS)C(=O)O; NMeA = CN[C@@H](C)C(=O)O; Nle = CCCC[C@H](N)C(=O)O; Nva = CCC[C@H](N)C(=O)O

Target: KRAS-G12D protein (Homo sapiens, UniProt P01116, G12D)
Sequence (P01116 1-188 isoform P01116-2 G12D): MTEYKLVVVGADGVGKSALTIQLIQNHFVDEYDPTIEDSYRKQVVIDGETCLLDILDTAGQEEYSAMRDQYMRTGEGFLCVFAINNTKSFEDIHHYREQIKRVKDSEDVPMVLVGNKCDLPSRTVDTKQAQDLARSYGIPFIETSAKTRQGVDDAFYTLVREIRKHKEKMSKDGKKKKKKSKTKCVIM
Experiment: SOS-mediated nucleotide exchange assay (BODIPY-GDP / Tb-streptavidin TR-FRET)
Assay type: biochemical

| Structure (SMILES) | EC50 [µM] |
| --- | --- |
| CCCC[C@@H]1NC(=O)[C@H](Cc2cccnc2)NC(=O)[C@H](C)N(C)C(=O)[C@H](Cc2ccccc2)OC(=O)C23CC(CNC(=O)[C@H](CC4CCCCC4)N(C)C(=O)[C@H](CCCC)NC(=O)[C@H](Cc4ccccc4F)NC1=O)(C2)C3 [compound 232, cyclo(FLac-NMeA-3Pal-Nle-Phe2F-Nle-NMeCha-amBCP)] (cyclo([3Pal][Nle][Phe(2-F)][Nle][NMeCha][X1][PhLac][NMeA])) | 2.93 |
| CC(C)CC[C@@H]1NC(=O)[C@H](Cc2ccccc2F)NC(=O)[C@H](CC2CCCC2)NC(=O)[C@H](Cc2cncnc2)NC(=O)[C@H](C)N(C)C(=O)[C@H](Cc2ccccc2)OC(=O)C23CC(CNC(=O)[C@H](Cc4cncnc4)N(C)C1=O)(C2)C3 [compound 335, cyclo(FLac-NMeA-PyrimAla-cPeA-Phe2F-hL-NMeAlaPyrim-amBCP)] (cyclo([Ala(cPent)][Phe(2-F)][hLeu][X3][X1][PhLac][NMeA][Ala(pyrimidin-5-yl)])) | 0.001 |
| CCCC[C@@H]1NC(=O)[C@H](Cc2ccc(O)cc2)NC(=O)[C@H](CC(C)C)NC(=O)[C@H](Cc2ccc(N)cc2)NC(=O)[C@H](CCCNC(=N)N)NC(=O)[C@H](Cc2ccccc2)NC(=O)CSCCNC(=O)[C@H](Cc2ccccc2)N(C)C1=O [compound 79, cyclo(F-R~Phe4NH2-L-Y-Nle-NMeF-Cysteamine-ClAc)] (cyclo(FR[Phe(4-NH2)]LY[Nle][NMeF][NHCH2CH2SCH2CO])) | 2.36 |
| CCCC[C@@H]1NC(=O)[C@H](Cc2ccc(OC)cc2)NC(=O)[C@H](CC(C)C)NC(=O)[C@H](Cc2ccc(NC(=N)N)cc2)NC(=O)[C@H](CCC)NC(=O)[C@H](Cc2ccccc2)NC(=O)CSC[C@H](C(N)=O)NC(=O)[C@H](Cc2ccccc2)N(C)C1=O [compound 48, cyclo(F-Nva-Phe4Gn-L-TyrOMe-Nle-NMeF-dCl-ClAc)] ({CH2CO}-F[Nva][Phe(4-guanidino)]LY(Me)[Nle][NMeF][dC]-NH2; thioether N-8) | 4.32 |
| CCCC[C@@H]1NC(=O)[C@H](Cc2ccc(Cl)c(Cl)c2)NC(=O)[C@H](C)N(C)C(=O)[C@H](Cc2ccccc2)OC(=O)C23CC(CNC(=O)[C@H](Cc4ccccc4)N(C)C(=O)[C@H](CCCC)NC(=O)[C@H](Cc4ccccc4F)NC1=O)(C2)C3 [compound 309, cyclo(FLac-NMeA-Phe34Cl2-Nle-Phe2F-Nle-NMeF-amBCP)] (cyclo([NMeA][Phe(3,4-Cl2)][Nle][Phe(2-F)][Nle][NMeF][X1][PhLac])) | 0.108 |
| CCCC[C@@H]1NC(=O)[C@H](Cc2ccc(O)cc2)NC(=O)[C@H](CC(C)C)NC(=O)[C@H](Cc2ccc(O)cc2)NC(=O)[C@H](CCCNC(=N)N)NC(=O)[C@H](Cc2cccc3ccccc23)NC(=O)CSC[C@H](C(N)=O)NC(=O)[C@H](Cc2ccccc2)N(C)C1=O [compound 17, cyclo(INal-R-Y-L-Y-Nle-NMeF-dCl-ClAc)] ({CH2CO}-[1Nal]RYLY[Nle][NMeF][dC]-NH2; thioether N-8) | 1.05 |
| CCC[C@@H]1NC(=O)[C@H](Cc2ccc(O)cc2)NC(=O)[C@H](CC(C)C)NC(=O)[C@H](Cc2ccc(O)cc2)NC(=O)[C@H](CCCNC(=N)N)NC(=O)[C@H](Cc2ccccc2)NC(=O)CCCNC(=O)[C@H](Cc2ccccc2)N(C)C1=O [compound 161, cyclo(F-R-Y-L-Y-Nva-NMeF-C4NH2acid)] | 2.84 |
| CCCCC[C@@H]1NC(=O)[C@H](Cc2ccoc2)NC(=O)[C@H](CC2CCC2)NC(=O)[C@H](Cc2cccnc2)NC(=O)[C@H](CCCNC(=N)N)NC(=O)[C@H](Cc2ccccc2)NC(=O)CSC[C@@](C)(C(N)=O)NC(=O)[C@H](Cc2ccccc2)N(C)C1=O [compound 374, cyclo(F-R-3Pal-cBuA-Ala3Fur-Ahp-NMeF-aMeCl-ClAc)] ({CH2CO}-FR[3Pal][Cba][X47][Ahp(2)][NMeF][αMeC]-NH2; thioether N-8) | 0.0698 |
| CCCC[C@@H]1NC(=O)[C@H](Cc2ccccc2F)NC(=O)[C@H](CC2CCC2)NC(=O)[C@@H](Cc2cccnc2)NC(=O)CN(CCCn2ccnc2)C(=O)[C@H](Cc2ccccc2)NC(=O)C23CC(CNC(=O)[C@H](Cc4cccnc4)N(C)C1=O)(C2)C3 [compound 181, cyclo(F-IPG-d3Pal-cBuA-Phe2F-Nle-NMe3Pal-amBCP)] (cyclo(F[N(3-imidazol-1-ylpropyl)Gly][d3Pal][Cba][Phe(2-F)][Nle][NMe3Pal][X1])) | 1.23 |
